The supplement of paper PMC10307832

How the values were obtained:
Assay in all cases: relative viability (nuclei count vs DMSO), 5 days (fraction); higher = more cells survive
Seliciclib + Luminespib = compound: CC[C@H](CO)Nc1nc(NCc2ccccc2)c2ncn(C(C)C)c2n1 [Seliciclib] + CCNC(=O)c1noc(-c2cc(C(C)C)c(O)cc2O)c1-c1ccc(CN2CCOCC2)cc1 [Luminespib] (partner 0.01 µM)
In short: (§1)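 Five library-drug doses in √10 steps were combined with a fixed anchor-drug dose, or a single drug was given alone, by pin tool to lung cancer cell lines in 1536-well plates the day after seeding. Nuclei were stained and counted after 5 days. Relative viability is the nuclei count in treated wells over that in vehicle wells, taken as the median of duplicate plates.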

Seliciclib + Bortezomib = compound: CC[C@H](CO)Nc1nc(NCc2ccccc2)c2ncn(C(C)C)c2n1 [Seliciclib] + CC(C)C[C@H](NC(=O)[C@H](Cc1ccccc1)NC(=O)c1cnccn1)B(O)O [Bortezomib] (partner 0.002 µM)
In short: as §1

Seliciclib + Navitoclax = compound: CC[C@H](CO)Nc1nc(NCc2ccccc2)c2ncn(C(C)C)c2n1 [Seliciclib] + CC1(C)CCC(c2ccc(Cl)cc2)=C(CN2CCN(c3ccc(C(=O)NS(=O)(=O)c4ccc(N[C@H](CCN5CCOCC5)CSc5ccccc5)c(S(=O)(=O)C(F)(F)F)c4)cc3)CC2)C1 [Navitoclax] (partner 0.5 µM)
In short: as §1

Seliciclib + Dasatinib = compound: CC[C@H](CO)Nc1nc(NCc2ccccc2)c2ncn(C(C)C)c2n1 [Seliciclib] + Cc1nc(Nc2ncc(C(=O)Nc3c(C)cccc3Cl)s2)cc(N2CCN(CCO)CC2)n1 [Dasatinib] (partner 0.075 µM)
In short: as §1

Cell Line	relative viability (Seliciclib + Luminespib; first compound 0.08 µM)	relative viability (Seliciclib + Luminespib; first compound 0.253 µM)	relative viability (Seliciclib + Luminespib; first compound 0.8 µM)	relative viability (Seliciclib + Luminespib; first compound 2.53 µM)	relative viability (Seliciclib + Luminespib; first compound 8 µM)	relative viability (Seliciclib + Bortezomib; first compound 0.08 µM)	relative viability (Seliciclib + Bortezomib; first compound 0.253 µM)	relative viability (Seliciclib + Bortezomib; first compound 0.8 µM)	relative viability (Seliciclib + Bortezomib; first compound 2.53 µM)	relative viability (Seliciclib + Bortezomib; first compound 8 µM)	relative viability (Seliciclib + Navitoclax; first compound 0.08 µM)	relative viability (Seliciclib + Navitoclax; first compound 0.253 µM)	relative viability (Seliciclib + Navitoclax; first compound 0.8 µM)	relative viability (Seliciclib + Navitoclax; first compound 2.53 µM)	relative viability (Seliciclib + Navitoclax; first compound 8 µM)	relative viability (Seliciclib + Dasatinib; first compound 0.08 µM)	relative viability (Seliciclib + Dasatinib; first compound 0.253 µM)	relative viability (Seliciclib + Dasatinib; first compound 0.8 µM)	relative viability (Seliciclib + Dasatinib; first compound 2.53 µM)	relative viability (Seliciclib + Dasatinib; first compound 8 µM)
LU99A	0.267	0.196	0.209	0.191	0.268	1.16	1.05	1.01	0.94	0.803	0.9	0.671	0.69	0.759	0.711	0.611	0.521	0.588	0.262	0.507
LXF-289	0.603	0.778	0.545	0.642	0.56	0.981	1.11	0.904	0.971	0.838	0.937	1.03	0.795	0.934	0.914	0.245	0.202	0.248	0.128	0.221
NCI-H23	0.202	0.206	0.209	0.211	0.242	0.84	0.776	1.1	0.496	0.895	0.813	0.677	0.842	0.624	0.565	0.855	0.785	0.756	0.296	0.643
NCI-H322M	0.855	0.883	0.794	0.786	0.809	1.21	1.4	1.18	1.23	1.09	1.22	1.34	1.12	1.37	1.24	0.257	0.267	0.263	0.232	0.219
NCI-H441	0.319	0.296	0.341	0.299	0.299	0.662	0.429	0.314	0.406	0.531	0.603	0.365	0.526	0.566	0.59	0.732	0.848	0.536	0.339	0.601
NCI-H460	0.0402	0.0324	0.0419	0.0357	0.0269	1.14	1.26	1.09	1.48	0.912	1.1	1.13	1.03	1.1	0.801	0.524	0.391	0.357	0.288	0.363
NCI-H520	0.234	–	0.175	0.315	0.205	0.521	0.507	0.581	0.679	0.429	0.96	0.847	0.997	1.2	1.18	0.167	–	0.258	0.219	0.178
NCI-H596	0.802	–	1	0.84	0.745	1.1	0.892	0.96	1.19	0.914	1	0.567	0.891	1.16	0.826	0.658	–	0.594	0.606	0.515
NCI-H647	0.111	0.206	0.127	0.128	0.163	0.789	0.849	0.941	1.05	0.891	1.02	1	1.06	1.12	0.878	0.225	–	0.209	0.166	0.189
NCI-H727	0.338	0.447	0.372	0.321	0.271	0.759	0.774	0.578	0.585	0.716	0.509	0.494	0.407	0.43	0.309	0.481	0.504	0.342	0.307	0.336
NCI-H838	0.356	0.27	0.332	0.28	0.344	0.82	0.879	0.762	0.727	0.487	1.11	1.03	1.2	1.26	0.917	0.341	0.198	0.26	0.218	0.303
NCI-H1355	0.722	0.638	0.643	0.713	0.684	1.16	1.1	1.23	1.03	1.11	0.952	0.861	1.01	1.13	0.873	0.755	0.585	0.683	0.544	0.686
NCI-H1437	0.999	1.2	1.05	1.05	0.809	0.436	0.524	0.47	0.422	0.39	1.01	1.11	1.07	1.15	0.885	0.465	0.438	0.323	0.233	0.335
NCI-H1650	0.195	0.185	0.216	0.199	0.193	0.214	0.217	0.2	0.21	0.178	1.12	1.01	1.07	1.21	1.08	0.3	0.344	0.304	0.247	0.285
NCI-H1651	0.864	0.958	0.876	0.594	0.564	1	0.925	0.897	0.836	0.947	0.947	0.965	0.863	1.14	0.887	0.403	0.399	0.536	0.302	0.382
NCI-H1666	1.01	1.08	1.04	0.968	0.778	0.799	0.739	0.809	0.66	0.568	0.951	1.05	0.909	1.06	0.512	0.732	0.888	0.875	0.605	0.551

Cell Line	relative viability (Seliciclib + Luminespib; first compound 0.08 µM)	relative viability (Seliciclib + Luminespib; first compound 0.253 µM)	relative viability (Seliciclib + Luminespib; first compound 0.8 µM)	relative viability (Seliciclib + Luminespib; first compound 2.53 µM)	relative viability (Seliciclib + Luminespib; first compound 8 µM)	relative viability (Seliciclib + Bortezomib; first compound 0.08 µM)	relative viability (Seliciclib + Bortezomib; first compound 0.253 µM)	relative viability (Seliciclib + Bortezomib; first compound 0.8 µM)	relative viability (Seliciclib + Bortezomib; first compound 2.53 µM)	relative viability (Seliciclib + Bortezomib; first compound 8 µM)	relative viability (Seliciclib + Navitoclax; first compound 0.08 µM)	relative viability (Seliciclib + Navitoclax; first compound 0.253 µM)	relative viability (Seliciclib + Navitoclax; first compound 0.8 µM)	relative viability (Seliciclib + Navitoclax; first compound 2.53 µM)	relative viability (Seliciclib + Navitoclax; first compound 8 µM)	relative viability (Seliciclib + Dasatinib; first compound 0.08 µM)	relative viability (Seliciclib + Dasatinib; first compound 0.253 µM)	relative viability (Seliciclib + Dasatinib; first compound 0.8 µM)	relative viability (Seliciclib + Dasatinib; first compound 2.53 µM)	relative viability (Seliciclib + Dasatinib; first compound 8 µM)
NCI-H1734	0.186	0.199	0.181	0.159	0.222	0.873	0.833	0.882	1.08	0.824	0.847	0.733	0.834	0.879	0.808	0.488	0.426	0.493	0.295	0.335
NCI-H1755	0.573	0.565	0.444	0.406	0.407	0.928	0.961	0.896	0.973	0.913	0.984	0.997	0.998	1.04	0.871	0.423	0.404	0.429	0.26	0.404
NCI-H1792	0.43	0.464	0.364	–	0.35	1.03	0.96	0.898	0.904	0.884	0.616	0.583	0.663	0.443	0.609	0.754	0.788	0.766	–	0.743
NCI-H1915	0.756	0.765	0.785	0.853	0.653	0.961	1.05	0.951	0.987	0.743	0.776	0.779	0.759	0.8	0.618	0.354	0.303	0.277	0.288	0.283
NCI-H1975	0.2	0.124	0.19	0.198	0.479	0.372	0.348	0.345	0.322	0.218	1	0.959	1.05	1.12	0.878	0.409	0.374	0.424	0.326	0.314
NCI-H1993	0.879	0.733	0.875	0.674	0.612	1.12	0.878	0.936	0.784	0.924	0.937	0.635	0.927	0.962	0.849	0.589	0.478	0.521	0.508	0.435
NCI-H2009	0.998	1.13	1.07	1.01	0.943	1.05	1.21	0.908	0.911	0.941	1.14	1.17	1.13	1.2	1.08	0.322	0.376	0.307	0.233	0.288
NCI-H2023	0.681	0.832	0.703	0.569	0.421	0.998	1.1	1.1	0.747	0.84	0.895	0.853	0.967	0.949	0.891	0.534	0.407	0.606	0.434	0.477
NCI-H2085	0.508	0.462	0.414	0.398	0.372	0.759	1.09	1.1	1.03	0.841	1.13	1.16	1.14	1.05	0.965	0.219	0.274	0.256	0.294	0.251
NCI-H2087	0.192	0.188	0.158	0.193	0.231	0.73	0.792	0.719	0.752	0.661	0.914	0.879	0.991	0.879	0.696	0.874	1.07	0.898	0.704	0.754
NCI-H2126	0.906	0.733	0.89	0.642	0.781	1.12	1.14	1.07	0.957	1.04	0.817	0.799	0.844	0.878	0.787	0.671	0.598	0.557	0.334	0.501
NCI-H2228	0.157	0.155	0.14	0.185	0.149	1.05	0.943	0.954	0.978	0.713	0.562	0.447	0.913	0.735	0.653	0.581	0.488	0.481	0.514	0.368
NCI-H2347	0.428	0.328	0.512	0.412	0.721	1.22	0.927	0.908	–	0.847	0.763	0.801	0.73	0.859	0.568	0.323	0.35	0.209	0.248	0.302
NCI-H2405	0.676	0.661	0.799	0.385	0.548	0.984	0.956	0.946	0.922	0.905	0.666	0.71	0.754	0.717	0.631	0.211	0.219	0.197	0.171	0.212
NCI-H3122	0.0896	–	0.1	0.0781	0.11	1.03	1.04	0.995	0.973	0.967	1.02	1.07	1.01	1.03	0.903	0.719	–	0.787	0.679	0.812
PC-3 [JPC-3]	0.81	0.584	0.63	0.605	0.66	0.895	0.911	0.738	0.695	0.742	0.829	0.84	0.77	0.786	0.751	1.04	1	0.982	0.936	0.946
